The NIST ThermoML archive (doi:10.1021/je900131q)
Several values for one entry are separate records, joined by “and”; a condition that tells them apart may be missing. Equal values may be shown once. ± gives the expanded uncertainty stated by the source.

Settings: Fluid (supercritical or subcritical phases); for mass density: Buoyancy - hydrostatic balance with magnetic suspension - one sinker; for viscosity: Vibrating wire viscometer

[He] [helium]
Settings	mass density	viscosity [mPa·s]
293.13 K, 27527 kPa	39.805 ± 0.088 kg/m3	0.01975 ± 0.00012
293.14 K, 2446 kPa	3.967 ± 0.0092 kg/m3	0.01958 ± 0.00012
293.14 K, 16374 kPa	24.912 ± 0.055 kg/m3	0.01958 ± 0.00012
293.14 K, 20744 kPa	30.969 ± 0.068 kg/m3	0.01962 ± 0.00012
293.14 K, 27529 kPa	39.804 ± 0.087 kg/m3	0.01975 ± 0.00012
293.15 K, 122.25 kPa	0.19885 ± 0.0024 kg/m3	0.01954 ± 0.00012
293.15 K, 245.73 kPa	0.40368 ± 0.0024 kg/m3	0.01958 ± 0.00012
293.15 K, 366.51 kPa	0.59858 ± 0.0026 kg/m3	0.01959 ± 0.00012
293.15 K, 366.53 kPa	0.60087 ± 0.0026 kg/m3	0.01959 ± 0.00012
293.15 K, 482.99 kPa	0.79042 ± 0.0028 kg/m3	0.01959 ± 0.00012
293.15 K, 483 kPa	0.79119 ± 0.0028 kg/m3	0.01959 ± 0.00012
293.15 K, 1219.9 kPa	1.9866 ± 0.005 kg/m3	0.01959 ± 0.00012
293.15 K, 1827.5 kPa	2.9695 ± 0.0071 kg/m3	0.01958 ± 0.00012
293.15 K, 1827.6 kPa	2.9711 ± 0.0071 kg/m3	0.01958 ± 0.00012
293.15 K, 2466.2 kPa	3.9699 ± 0.0083 kg/m3	0.01958 ± 0.00012
293.15 K, 3714.2 kPa	5.9819 ± 0.014 kg/m3	0.01957 ± 0.00012
293.15 K, 3714.3 kPa	5.9857 ± 0.014 kg/m3	0.01956 ± 0.00012
293.15 K, 4978.6 kPa	7.974 ± 0.018 kg/m3	0.01956 ± 0.00012
293.15 K, 4978.7 kPa	7.9747 ± 0.018 kg/m3	0.01956 ± 0.00012
293.15 K, 4995.9 kPa	7.9672 ± 0.018 kg/m3	0.01957 ± 0.00012
293.15 K, 7564.1 kPa	11.972 ± 0.027 kg/m3	0.01955 ± 0.00012
293.15 K, 7564.2 kPa	11.972 ± 0.027 kg/m3	0.01955 ± 0.00012
293.15 K, 8842.9 kPa	13.917 ± 0.031 kg/m3 and 13.915 ± 0.031 kg/m3	0.01955 ± 0.00012
293.15 K, 10227 kPa	15.922 ± 0.036 kg/m3	0.01957 ± 0.00012
293.15 K, 12231 kPa	18.954 ± 0.042 kg/m3	0.01956 ± 0.00012
293.15 K, 14295 kPa	21.949 ± 0.048 kg/m3	0.01957 ± 0.00012
293.15 K, 14296 kPa	21.953 ± 0.048 kg/m3	0.01957 ± 0.00012
293.15 K, 14320 kPa	21.908 ± 0.049 kg/m3	0.01959 ± 0.00012
293.15 K, 16374 kPa	24.913 ± 0.055 kg/m3	0.01958 ± 0.00012
293.15 K, 18460 kPa	27.833 ± 0.061 kg/m3 and 27.831 ± 0.061 kg/m3	0.0196 ± 0.00012
293.15 K, 20744 kPa	30.973 ± 0.068 kg/m3	0.01963 ± 0.00012
293.15 K, 22880 kPa	33.856 ± 0.075 kg/m3	0.01966 ± 0.00012
293.15 K, 22883 kPa	33.861 ± 0.074 kg/m3	0.01966 ± 0.00012
293.15 K, 22973 kPa	33.811 ± 0.074 kg/m3	0.01968 ± 0.00012
293.15 K, 25224 kPa	36.797 ± 0.081 kg/m3	0.01972 ± 0.00012
293.15 K, 25329 kPa	37.097 ± 0.082 kg/m3 and 37.099 ± 0.082 kg/m3	0.01969 ± 0.00012
293.16 K, 245.73 kPa	0.40445 ± 0.0024 kg/m3	0.01958 ± 0.00012
293.16 K, 613.17 kPa	1.0037 ± 0.003 kg/m3	0.01959 ± 0.00012
293.16 K, 613.18 kPa	1.0029 ± 0.003 kg/m3	0.01959 ± 0.00012
293.16 K, 2447.5 kPa	3.9693 ± 0.0092 kg/m3 and 3.9647 ± 0.0092 kg/m3	0.01958 ± 0.00012
293.16 K, 3742.3 kPa	5.9974 ± 0.014 kg/m3	0.01958 ± 0.00012
293.16 K, 4996.2 kPa	7.965 ± 0.018 kg/m3	0.01957 ± 0.00012
293.16 K, 6263.9 kPa	9.9737 ± 0.022 kg/m3 and 9.9745 ± 0.022 kg/m3	0.01956 ± 0.00012
